According to US5620958A, “Bradykinin antagonists” (Coretech, Inc., priority 1994, dated 1997):
Square brackets hold non-standard residues; d marks the D form. Peptide text beside a SMILES is read from it. Oic = O=C(O)[C@@H]1C[C@@H]2CCCC[C@@H]2N1; Hyp = O=C(O)[C@@H]1C[C@@H](O)CN1; dTic = O=C(O)[C@H]1Cc2ccccc2CN1; 2Thi = N[C@@H](Cc1cccs1)C(=O)O

Experiments:
BK1 receptor = biological target: T1, BK1 receptor (Oryctolagus cuniculus, UniProt P48748); assay: blood pressure response to BK1 agonist in LPS-pretreated rabbits; type: in vivo, rabbit; conditions: rabbits given LPS (10 μg) 20 hours before
T1 construct: when administered to an intact animal; from tissue; host or cells: whole rabbit (systemic arterial blood pressure), LPS-pretreated
T1 sequence (P48748 1-352): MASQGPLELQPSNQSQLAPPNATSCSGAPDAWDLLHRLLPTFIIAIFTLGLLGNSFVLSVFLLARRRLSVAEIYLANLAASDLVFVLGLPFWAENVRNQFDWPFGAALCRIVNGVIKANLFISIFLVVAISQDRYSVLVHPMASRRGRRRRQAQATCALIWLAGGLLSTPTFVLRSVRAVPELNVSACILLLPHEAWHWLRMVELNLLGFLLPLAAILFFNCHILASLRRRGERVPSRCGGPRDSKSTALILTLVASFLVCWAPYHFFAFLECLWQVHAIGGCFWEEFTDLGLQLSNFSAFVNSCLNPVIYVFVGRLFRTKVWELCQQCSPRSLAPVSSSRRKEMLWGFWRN

BK2 receptor [1] = biological target: T2, BK2 receptor (Oryctolagus cuniculus, UniProt Q28642); assay: blood pressure response to BK2 agonist in LPS-pretreated rabbits; type: in vivo, rabbit; parameters: key to OBSERVED ANTAGONIST ACTIVITY BK2: +: indicates complete blockade of the blood pressure response to the appropriate agonist; +/-: indicates partial blockade; -: indicates no observable effect at the dose indicated; conditions: rabbits given LPS (10 μg) 20 hours before
T2 construct: when administered to an intact animal; from tissue; host or cells: whole rabbit (systemic arterial blood pressure), LPS-pretreated
T2 sequence (Q28642 1-367): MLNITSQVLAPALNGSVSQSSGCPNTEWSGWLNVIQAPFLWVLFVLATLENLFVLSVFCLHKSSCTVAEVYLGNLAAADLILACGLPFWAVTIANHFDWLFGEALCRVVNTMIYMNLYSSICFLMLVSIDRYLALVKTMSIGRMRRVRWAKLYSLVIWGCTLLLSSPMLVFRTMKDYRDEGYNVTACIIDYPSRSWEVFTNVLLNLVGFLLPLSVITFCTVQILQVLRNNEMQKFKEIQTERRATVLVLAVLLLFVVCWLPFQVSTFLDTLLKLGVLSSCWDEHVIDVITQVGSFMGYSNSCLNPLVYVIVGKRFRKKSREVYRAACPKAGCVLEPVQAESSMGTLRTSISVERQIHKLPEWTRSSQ

BK2 receptor [2] = biological target: T3, BK2 receptor (Cavia porcellus, UniProt O70526); assay: guinea-pig ileum (GPI) in vitro, antagonism of BK; type: cell-based; conditions: Table B; read-out: pA2 GUINEA PIG ILEUM (converted)
T3 construct: tested for activity on guinea pig ileum in vitro on the standard tissue bath/strain gauge system; from tissue; host or cells: guinea pig ileum
T3 sequence (O70526 1-372): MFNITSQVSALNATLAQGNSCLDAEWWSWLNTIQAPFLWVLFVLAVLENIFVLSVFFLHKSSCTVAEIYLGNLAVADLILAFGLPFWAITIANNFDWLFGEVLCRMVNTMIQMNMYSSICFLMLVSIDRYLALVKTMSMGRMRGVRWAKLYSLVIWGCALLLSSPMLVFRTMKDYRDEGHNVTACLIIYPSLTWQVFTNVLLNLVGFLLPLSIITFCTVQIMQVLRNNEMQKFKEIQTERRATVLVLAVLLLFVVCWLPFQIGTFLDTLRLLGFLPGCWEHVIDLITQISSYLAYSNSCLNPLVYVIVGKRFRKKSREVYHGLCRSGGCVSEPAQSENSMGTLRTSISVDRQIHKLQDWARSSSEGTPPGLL
Protocol: Thus, in vitro studies were performed on standard assay systems, namely, guinea-pig ileum (GPI), rat uterus (RU) and rabbit jugular vein (RJV). […] The potency of each compound was assessed as a pA2 value according to the method of Arunlakshana & Schild, Br. J. Pharmacol. Chemother., 1.4:48-58 (1959). The pA2 can be defined as the negative logarithm of the molar concentration of the antagonist in the presence of which the potency of the agonist is reduced two-fold, i.e., twice the amount of agonist is required to produce a given response in the presence of, than in the absence of, the antagonist. A high potency of antagonism is indicated by a high pA2 value, i.e., a low concentration of antagonist is effective.
The percentage recovery (% Rec) was also determined for compounds with respect to each assay.
The various compounds identified in Table B below were prepared following the procedure of Example 1 with the Cys moiety introduced into the parent CP-0088 at the position indicated followed by reaction between the sulfhydryl group of the Cys residue and BMH to provide dimers as indicated. The Cys-modified monomers and the resultant dimers were tested for activity on guinea pig ileum in vitro on the standard tissue bath/strain gauge system as before.

BK2 receptor [3] = biological target: T4, BK2 receptor (Rattus norvegicus, UniProt P25023); assay: cell-based
T4 sequence (P25023 1-396): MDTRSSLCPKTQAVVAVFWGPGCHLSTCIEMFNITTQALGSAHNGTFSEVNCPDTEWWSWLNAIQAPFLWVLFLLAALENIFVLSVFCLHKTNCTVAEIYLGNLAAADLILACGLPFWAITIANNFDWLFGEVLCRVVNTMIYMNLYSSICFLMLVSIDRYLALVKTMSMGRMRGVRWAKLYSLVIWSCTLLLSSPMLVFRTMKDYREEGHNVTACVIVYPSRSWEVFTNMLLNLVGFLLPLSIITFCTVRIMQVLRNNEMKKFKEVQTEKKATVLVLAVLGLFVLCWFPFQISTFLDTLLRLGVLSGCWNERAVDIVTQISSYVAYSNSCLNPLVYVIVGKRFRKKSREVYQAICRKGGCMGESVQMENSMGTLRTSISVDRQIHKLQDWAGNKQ

Compound	OBSERVED ANTAGONIST ACTIVITY BK1 (BK1 receptor; 1 μg kg^-1 min^-1)	OBSERVED ANTAGONIST ACTIVITY BK1 (BK1 receptor; 3 μg kg^-1 min^-1)	OBSERVED ANTAGONIST ACTIVITY BK1 (BK1 receptor; 10 μg kg^-1 min^-1)	OBSERVED ANTAGONIST ACTIVITY BK2 (BK2 receptor [1]; 1 μg kg^-1 min^-1)	OBSERVED ANTAGONIST ACTIVITY BK2 (BK2 receptor [1]; 3 μg kg^-1 min^-1)	OBSERVED ANTAGONIST ACTIVITY BK2 (BK2 receptor [1]; 10 μg kg^-1 min^-1)	Kb (BK2 receptor [2]) [nM]	Kb (BK2 receptor [3]) [nM]
CC(C)C[C@H](NC(=O)[C@@H]1CCCN1C(=O)[C@H](CO)NC(=O)[C@H](Cc1ccccc1)NC(=O)CNC(=O)[C@@H]1CCCN1C(=O)[C@@H]1CCCN1C(=O)[C@H](CCCNC(=N)N)NC(=O)[C@@H](N)CCCCN)C(=O)O [CP-0298, Lys^0Arg^1Pro^2Pro^3Gly^4Phe^5Ser^6Pro^7Leu^8, reference compound]	+	+	+	-	-	-		
N=C(N)NCCC[C@@H](N)C(=O)N[C@@H](CCCNC(=N)N)C(=O)N1CCC[C@H]1C(=O)N1C[C@H](O)C[C@H]1C(=O)NCC(=O)N[C@@H](Cc1ccccc1)C(=O)N[C@@H](CO)C(=O)N1Cc2ccccc2C[C@@H]1C(=O)N1[C@H](C(=O)O)C[C@@H]2CCCC[C@@H]21 [CP-0267] (HELM PEPTIDE1{[dR].R.P.[Hyp].G.F.S.[O=C([C@H]1Cc2ccccc2CN1[*:1])[*:2]].[O=C(O)[C@@H]1C[C@@H]2CCCC[C@@H]2N1[*:1]]}$$$$V2.0)	-	-	+	-	-	+/-		
CC(C)C[C@H](NC(=O)[C@@H](Cc1ccccc1)NC(=O)[C@H](CO)NC(=O)[C@H](Cc1ccccc1)NC(=O)CNC(=O)[C@H](CS)NC(=O)[C@@H]1CCCN1C(=O)[C@H](CCCNC(=N)N)NC(=O)[C@H](N)CCCNC(=N)N)C(=O)N[C@@H](CCCNC(=N)N)C(=O)O [CP-0143] (HELM PEPTIDE1{[dR].R.P.C.G.F.S.[dF].L.R}$$$$V2.0)							200	
CC(C)C[C@H](NC(=O)[C@@H](Cc1ccccc1)NC(=O)[C@H](CO)NC(=O)[C@H](Cc1ccccc1)NC(=O)CNC(=O)[C@@H]1C[C@@H](O)CN1C(=O)[C@@H]1CCCN1C(=O)[C@H](CCCNC(=N)N)NC(=O)[C@@H](N)CSC1CC(=O)N(CCCCCCN2C(=O)CC(SC[C@H](N)C(=O)N[C@@H](CCCNC(=N)N)C(=O)N3CCC[C@H]3C(=O)N3C[C@H](O)C[C@H]3C(=O)NCC(=O)N[C@@H](Cc3ccccc3)C(=O)N[C@@H](CO)C(=O)N[C@H](Cc3ccccc3)C(=O)N[C@@H](CC(C)C)C(=O)N[C@@H](CCCNC(=N)N)C(=O)O)C2=O)C1=O)C(=O)N[C@@H](CCCNC(=N)N)C(=O)O (stereo partly shown) [CP-0152] (HELM PEPTIDE1{C.R.P.[Hyp].G.F.S.[dF].L.R}|PEPTIDE2{C.R.P.[Hyp].G.F.S.[dF].L.R}|CHEM1{[O=C1CC([*:1])C(=O)N1CCCCCCN1C(=O)CC([*:2])C1=O]}$PEPTIDE1,CHEM1,1:R3-1:R1|PEPTIDE2,CHEM1,1:R3-1:R2$$$V2.0)							> 1000	
CC(C)C[C@H](NC(=O)[C@@H](Cc1ccccc1)NC(=O)[C@H](CO)NC(=O)[C@H](Cc1ccccc1)NC(=O)CNC(=O)[C@@H]1C[C@@H](O)CN1C(=O)[C@@H]1CCCN1C(=O)[C@H](CSC1CC(=O)N(CCCCCCN2C(=O)CC(SC[C@H](NC(=O)[C@H](Cc3ccccc3)NC(=O)CNC(=O)[C@@H]3C[C@@H](O)CN3C(=O)[C@@H]3CCCN3C(=O)[C@H](CCCNC(=N)N)NC(=O)[C@H](N)CCCNC(=N)N)C(=O)N[C@H](Cc3ccccc3)C(=O)N[C@@H](CC(C)C)C(=O)N[C@@H](CCCNC(=N)N)C(=O)O)C2=O)C1=O)NC(=O)[C@H](N)CCCNC(=N)N)C(=O)O (stereo partly shown) [CP-0386] (HELM PEPTIDE1{[dR].R.P.[Hyp].G.F.C.[dF].L.R}|PEPTIDE2{[dR].C.P.[Hyp].G.F.S.[dF].L}|CHEM1{[O=C1CC([*:1])C(=O)N1CCCCCCN1C(=O)CC([*:2])C1=O]}$PEPTIDE1,CHEM1,7:R3-1:R1|PEPTIDE2,CHEM1,2:R3-1:R2$$$V2.0; N-terminus and C-terminus assumed)	+	+	+	+	+	+		
CC(C)C[C@H](NC(=O)[C@@H](Cc1ccccc1)NC(=O)[C@H](CSC1CC(=O)N(CCCCCCCCCN2C(=O)CC(SC[C@H](NC(=O)[C@H](Cc3ccccc3)NC(=O)CNC(=O)[C@@H]3C[C@@H](O)CN3C(=O)[C@@H]3CCCN3C(=O)[C@H](CCCNC(=N)N)NC(=O)[C@H](N)CCCNC(=N)N)C(=O)N[C@H](Cc3ccccc3)C(=O)N[C@@H](CC(C)C)C(=O)N[C@@H](CCCNC(=N)N)C(=O)O)C2=O)C1=O)NC(=O)[C@H](Cc1ccccc1)NC(=O)CNC(=O)[C@@H]1C[C@@H](O)CN1C(=O)[C@@H]1CCCN1C(=O)[C@H](CCCNC(=N)N)NC(=O)[C@H](N)CCCNC(=N)N)C(=O)N[C@@H](CCCNC(=N)N)C(=O)O (stereo partly shown) [CP-0229] (HELM PEPTIDE1{[dR].R.P.[Hyp].G.F.C.[dF].L.R}|PEPTIDE2{[dR].R.P.[Hyp].G.F.C.[dF].L.R}|CHEM1{[O=C1CC([*:1])C(=O)N1CCCCCCCCCN1C(=O)CC([*:2])C1=O]}$PEPTIDE1,CHEM1,7:R3-1:R1|PEPTIDE2,CHEM1,7:R3-1:R2$$$V2.0)								0.501
CC(C)C[C@H](NC(=O)[C@@H](Cc1ccccc1)NC(=O)[C@H](CSC1CC(=O)N(CCCCCCCCCCN2C(=O)CC(SC[C@H](NC(=O)[C@H](Cc3ccccc3)NC(=O)CNC(=O)[C@@H]3C[C@@H](O)CN3C(=O)[C@@H]3CCCN3C(=O)[C@H](CCCNC(=N)N)NC(=O)[C@H](N)CCCNC(=N)N)C(=O)N[C@H](Cc3ccccc3)C(=O)N[C@@H](CC(C)C)C(=O)N[C@@H](CCCNC(=N)N)C(=O)O)C2=O)C1=O)NC(=O)[C@H](Cc1ccccc1)NC(=O)CNC(=O)[C@@H]1C[C@@H](O)CN1C(=O)[C@@H]1CCCN1C(=O)[C@H](CCCNC(=N)N)NC(=O)[C@H](N)CCCNC(=N)N)C(=O)N[C@@H](CCCNC(=N)N)C(=O)O (stereo partly shown) [CP-0230] (HELM PEPTIDE1{[dR].R.P.[Hyp].G.F.C.[dF].L.R}|PEPTIDE2{[dR].R.P.[Hyp].G.F.C.[dF].L.R}|CHEM1{[O=C1CC([*:1])C(=O)N1CCCCCCCCCCN1C(=O)CC([*:2])C1=O]}$PEPTIDE1,CHEM1,7:R3-1:R1|PEPTIDE2,CHEM1,7:R3-1:R2$$$V2.0)								2.51
N=C(N)NCCC[C@@H](N)C(=O)N[C@@H](CCCNC(=N)N)C(=O)N1CCC[C@H]1C(=O)N1C[C@H](O)C[C@H]1C(=O)NCC(=O)N[C@@H](Cc1cccs1)C(=O)N[C@@H](CO)C(=O)N1Cc2ccccc2C[C@@H]1C(=O)N1[C@H](C(=O)O)C[C@@H]2CCCC[C@@H]21 [CP-0345] (H-[dR]RP[Hyp]G[2Thi]S[dTic][Oic]-OH; N-terminus and C-terminus assumed)	-	+	+	-	+/-	+		
